Experiments:
human APJ receptor = human APJ receptor (Homo sapiens (Human), UniProt P35414); experiment: [35S]GTPγS binding assay on membranes from CHO cells stably expressing human APJ receptor; assay type: biochemical; details: read-out: Activity hAPJ SPA EC50 IP
In short: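 Membranes from CHO cells stably expressing human APJ incubated with ligand, 0.2 nM [35S]GTPγS and WGA SPA beads in HEPES pH 7.5 with 5 mM MgCl2, 200 mM NaCl, 3 μM GDP, 90 min at RT. Nonspecific binding defined with 100 μM GTPγS; EC50 by non-linear regression.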

[1] = system: isolated perfused rat hearts; experiment: Ex vivo isolated perfused rat heart assay (Langendorff apparatus), load independent inotropic and lusitropic effects; set-up: species or system Sprague Dawley rat; details: ex vivo isolated perfused rat heart, percent change over vehicle; for Isolated Heart Assay dP/dtmax (%): contractility; for Isolated Heart Assay dP/dtmin (%): relaxation
Text: Evidence for Load Independent Inotropic Effects with APJ Agonists Using Ex Vivo Assay (Isolated Perfused Rat Hearts)
Naive Sprague Dawley® SD rats (Harlan laboratories (Livermore, Calif. USA)) were anaesthetized and hearts were excised followed by cannulation in the Langendorff apparatus (Harvard apparatus, Holliston, Mass. USA) via aorta. The heart was perfused retrograde with modified oxygenated Krebs-Henseleit buffer (Skrzypiec-Spring M et al., (2007) J. Pharmacol Toxicol Methods 55: 113-126). The pressure of the solution causes the aortic valve to shut and the perfusate is then forced into the ostium and the coronary vessels. This allows the heart to beat for several h. A balloon was inserted into the left ventricle (LV) to measure dP/dtmax (derivative of left ventricular pressure) as an index of cardiac contractility. The APJ agonist was perfused constantly in a dose dependent manner into the heart to examine cardiac contractility.
Example 49.0 was infused at different concentrations and load independent contractility was measured by index of LV dP/dtmax and the results are expressed as a percent change over vehicle. […] Example 49.0 was infused at different concentrations and load independent lusitropic effect (relaxation) was measured by index of LV dP/dtmin where results are expressed as percent change over vehicle. […] Example 60.0 was infused at different concentrations and load independent contractility was measured by index of LV dP/dtmax and the results are expressed as a percent change over vehicle. […] Example 60.0 was infused at different concentrations and load independent lusitropic effect (relaxation) was measured by index of LV dP/dtmin where results are expressed as percent change over vehicle.

Sequence of human APJ receptor (P35414 whole entry): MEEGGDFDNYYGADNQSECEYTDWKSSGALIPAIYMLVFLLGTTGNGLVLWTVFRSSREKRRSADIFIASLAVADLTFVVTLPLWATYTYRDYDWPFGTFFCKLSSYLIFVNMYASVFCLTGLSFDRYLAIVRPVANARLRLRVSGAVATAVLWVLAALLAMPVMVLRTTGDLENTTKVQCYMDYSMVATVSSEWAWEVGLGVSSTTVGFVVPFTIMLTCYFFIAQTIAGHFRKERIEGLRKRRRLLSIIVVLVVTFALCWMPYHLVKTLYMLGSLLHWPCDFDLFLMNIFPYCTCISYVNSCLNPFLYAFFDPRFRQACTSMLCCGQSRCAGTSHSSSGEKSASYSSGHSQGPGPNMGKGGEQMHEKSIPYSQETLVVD

Molecule | EC50 (human APJ receptor) | Isolated Heart Assay dP/dtmax (%) [1] | Isolated Heart Assay dP/dtmin (%) [1]
COc1ncnc(OC)c1-n1c(NS(=O)(=O)[C@@H](C)[C@H](C)c2ncc(Cl)cn2)nnc1[C@@H]1COCCO1 (single isomer, unassigned) [Example 195.0, (2S,3R)-3-(5-chloropyrimidin-2-yl)-N-(4-(4,6-dimethoxypyrimidin-5-yl)-5-((R)-1,4-dioxan-2-yl)-4H-1,2,4-triazol-3-yl)butane-2-sulfonamide or (2S,3R)-3-(5-chloropyrimidin-2-yl)-N-(4-(4,6-dimethoxypyrimidin-5-yl)-5-((S)-1,4-dioxan-2-yl)-4H-1,2,4-triazol-3-yl)butane-2-sulfonamide] | 14 nM | 8.9% | 15.0%
(1R,2S)-1-(5-chloropyridin-2-yl)-N-(4-(2,6-dimethoxyphenyl)-5-((R)-1,4-dioxan-2-yl)-4H-1,2,4-triazol-3-yl)-1-methoxypropane-2-sulfonamide or (1R,2S)-1-(5-chloropyridin-2-yl)-N-(4-(2,6-dimethoxyphenyl)-5-((S)-1,4-dioxan-2-yl)-4H-1,2,4-triazol-3-yl)-1-methoxypropane-2-sulfonamide [Example 265.0] | 3.5 nM | 2.05% | 6.23%
COc1ncnc(OC)c1-n1c(NS(=O)(=O)[C@@H](C)[C@H](OC)c2ncc(Cl)cn2)nnc1[C@H]1CCC(C)(C)O1 (single isomer, unassigned) [Example 139.0, (1R,2S)-1-(5-chloropyrimidin-2-yl)-N-(4-(4,6-dimethoxypyrimidin-5-yl)-5-((S)-5,5-dimethyltetrahydrofuran-2-yl)-4H-1,2,4-triazol-3-yl)-1-methoxypropane-2-sulfonamide or (1R,2S)-1-(5-chloropyrimidin-2-yl)-N-(4-(4,6-dimethoxypyrimidin-5-yl)-5-((R)-5,5-dimethyhetrahydrofuran-2-yl)-4H-1,2,4-triazol-3-yl)-1-methoxypropane-2-sulfonamide] | 4.8 nM | 20.9% | 30.4%
COc1cccc(OC)c1-n1c(NS(=O)(=O)[C@@H](C)[C@H](C)c2ncc(Cl)cn2)nnc1[C@H]1CCCO1 (single isomer, unassigned) [Example 47.0, (2S,3R)-3-(5-chloro-2-pyrimidinyl)-N-(4-(2,6-dimethoxyphenyl)-5-((2S)-tetrahydro-2-furanyl)-4H-1,2,4-triazol-3-yl)-2-butanesulfonamide or (2S,3R)-3-(5-chloro-2-pyrimidinyl)-N-(4-(2,6-dimethoxyphenyl)-5-((2R)-tetrahydro-2-furanyl)-4H-1,2,4-triazol-3-yl)-2-butanesulfonamide] | 0.72 nM | 6.5% | 1.0%
COc1cccc(OC)c1-n1c(NS(=O)(=O)[C@@H](C)[C@H](C)c2ncc(Cl)cn2)nnc1[C@H]1CCCO1 (single isomer, unassigned) [Example 53.0, (2S,3R)-3-(5-chloro-2-pyrimidinyl)-N-(4-(2,6-dimethoxyphenyl)-5-((2S)-tetrahydro-2-furanyl)-4H-1,2,4-triazol-3-yl)-2-butanesulfonamide or (2S,3R)-3-(5-chloro-2-pyrimidinyl)-N-(4-(2,6-dimethoxyphenyl)-5-((2R)-tetrahydro-2-furanyl)-4H-1,2,4-triazol-3-yl)-2-butanesulfonamide] | 13 nM | 14.0% | 12.4%
COc1cccc(OC)c1-n1c(NS(=O)(=O)[C@@H](C)[C@H](O)c2ncc(C)cn2)nnc1[C@H]1CCOC1 (single isomer, unassigned) [Example 140.0, (1R,2S)-N-(4-(2,6-dimethoxyphenyl)-5-((S)-tetrahydrofuran-3-yl)-4H-1,2,4-triazol-3-yl)-1-hydroxy-1-(5-methylpyrimidin-2-yl)propane-2-sulfonamide or (1R,2S)-N-(4-(2,6-dimethoxyphenyl)-5-((R)-tetrahydrofuran-3-yl)-4H-1,2,4-triazol-3-yl)-1-hydroxy-1-(5-methylpyrimidin-2-yl)propane-2-sulfonamide] | 90 nM | 8.85% | 15.4%
COc1cccc(OC)c1-n1c(NS(=O)(=O)[C@@H](C)[C@H](OC)c2ncc(Cl)cn2)nnc1[C@H]1CCOC1 (single isomer, unassigned) [Example 57.0, (1R,2S)-1-(5-chloropyrimidin-2-yl)-N-(4-(2,6-dimethoxyphenyl)-5-((R)-tetrahydrofuran-3-yl)-4H-1,2,4-triazol-3-yl)-1-methoxypropane-2-sulfonamide or (1R,2S)-1-(5-chloropyrimidin-2-yl)-N-(4-(2,6-dimethoxyphenyl)-5-((S)-tetrahydrofuran-3-yl)-4H-1,2,4-triazol-3-yl)-1-methoxypropane-2-sulfonamide] | 21 nM | No effect | No effect
COc1cccc(OC)c1-n1c(NS(=O)(=O)[C@@H](C)[C@H](OC)c2ncc(Cl)cn2)nnc1[C@H]1CC[C@@H](C)O1 (single isomer, unassigned) [Example 78.0, (1R,2S)-1-(5-chloropyrimidin-2-yl)-N-(4-(2,6-dimethoxyphenyl)-5-((2S,5S)-5-methyltetrahydrofuran-2-yl)-4H-1,2,4-triazol-3-yl)-1-methoxy-propane-2-sulfonamide or (1R,2S)-1-(5-chloropyrimidin-2-yl)-N-(4-(2,6-dimethoxyphenyl)-5-((2R,5R)-5-methyltetrahydrofuran-2-yl)-4H-1,2,4-triazol-3-yl)-1-methoxypropane-2-sulfonamide] | 5 nM | 7.09% | 8.61%
COc1cccc(OC)c1-n1c(NS(=O)(=O)[C@@H](C)[C@H](C)c2ncc(C)cn2)nnc1[C@H]1CCCO1 (single isomer, unassigned) [Example 50.0, (2S,3R)-N-(4-(2,6-dimethoxyphenyl)-5-((S)-tetrahydrofuran-2-yl)-4H-1,2,4-triazol-3-yl)-3-(5-methylpyrimidin-2-yl)butane-2-sulfonamide or (2S,3R)-N-(4-(2,6-dimethoxyphenyl)-5-((R)-tetrahydrofuran-2-yl)-4H-1,2,4-triazol-3-yl)-3-(5-methylpyrimidin-2-yl)butane-2-sulfonamide] | 28 nM | 2.0% | No effect
(1R,2S)-1-(5-chloropyrimidin-2-yl)-N-(4-(2,6-dimethoxyphenyl)-5-((R)-1,4-dioxan-2-yl)-4H-1,2,4-triazol-3-yl)-1-methoxypropane-2-sulfonamide or (1R,2S)-1-(5-chloropyrimidin-2-yl)-N-(4-(2,6-dimethoxyphenyl)-5-((S)-1,4-dioxan-2-yl)-4H-1,2,4-triazol-3-yl)-1-methoxypropane-2-sulfonamide [Example 198.0] | 3.7 nM | −2.58% | 1.65%

Source: patent US10150760B2, “Compounds for use in preparing heterocyclic triazole agonists of the APJ receptor” (AMGEN INC., priority 2016, dated 2018)
